Experimental data taken from patent publication US20240140944A1, “NOVEL NAPHTHYRIDINONE DERIVATIVE HAVING INHIBITORY ACTIVITY AGAINST ECTONUCLEOTIDE PYROPHOSPHATASE-PHOSPHODIESTERASE AND USE THEREOF” (TXINNO BIOSCIENCE INC., priority 2020, published 2024).
Where a name gives a salt, the structure may show the parent alone.

Molecular target: T1, human recombinant ENPP1 enzymes (Homo sapiens, UniProt P22413)
T1 construct: purchased R & D systems
T1 sequence (P22413 1-925): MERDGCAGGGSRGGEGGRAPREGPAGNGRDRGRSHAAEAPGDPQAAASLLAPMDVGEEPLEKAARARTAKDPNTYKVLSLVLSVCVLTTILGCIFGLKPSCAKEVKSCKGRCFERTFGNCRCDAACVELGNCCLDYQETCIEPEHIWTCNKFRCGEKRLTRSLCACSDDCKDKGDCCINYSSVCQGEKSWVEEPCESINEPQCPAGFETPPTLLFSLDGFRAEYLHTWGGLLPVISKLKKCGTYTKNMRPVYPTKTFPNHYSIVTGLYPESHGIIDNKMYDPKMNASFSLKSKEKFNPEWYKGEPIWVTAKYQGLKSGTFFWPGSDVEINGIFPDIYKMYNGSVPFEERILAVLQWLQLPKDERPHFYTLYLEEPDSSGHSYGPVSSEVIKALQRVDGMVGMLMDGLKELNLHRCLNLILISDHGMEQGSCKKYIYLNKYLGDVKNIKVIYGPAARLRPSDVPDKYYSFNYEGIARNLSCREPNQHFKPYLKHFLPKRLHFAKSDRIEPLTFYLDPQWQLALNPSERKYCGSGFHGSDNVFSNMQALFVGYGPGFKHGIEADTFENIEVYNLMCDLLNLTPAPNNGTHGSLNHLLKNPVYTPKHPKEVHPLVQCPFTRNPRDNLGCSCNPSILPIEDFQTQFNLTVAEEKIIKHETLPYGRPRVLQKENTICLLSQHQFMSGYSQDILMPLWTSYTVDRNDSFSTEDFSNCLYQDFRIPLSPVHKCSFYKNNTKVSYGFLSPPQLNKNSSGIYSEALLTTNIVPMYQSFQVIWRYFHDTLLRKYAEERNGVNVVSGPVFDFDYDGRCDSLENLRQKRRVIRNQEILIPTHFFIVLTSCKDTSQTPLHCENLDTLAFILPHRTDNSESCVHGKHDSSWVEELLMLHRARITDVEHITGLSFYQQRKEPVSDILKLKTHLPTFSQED
Experiment: ENPP1 Enzyme Assay with cGAMP Substrate (AMP-Glo)
Format: biochemical
Settings: human recombinant ENPP1 3 ng/reaction, cGAMP 5 μM, 37° C. 90 minutes, average of two or more tests; read-out: Enzymatic activity IC50
Protocol: ENPP1 hydrolyzes nucleotides or nucleotide derivatives to produce nucleoside-5′-monophosphate and pyrophosphate. In addition, ENPP1 hydrolyzes 2′,3′-cGAMP to produce 5′-adenosine monophosphate (AMP) and 5′-guanosine monophosphate (GMP). AMP produced from the reaction is measured using the AMP-Glo® kit (Promega). The AMP-Glo® kit contains two reagents. The first reagent terminates the AMP-producing enzymatic reaction, removes ATP and converts the produced AMP into ADP. The second reagent converts ADP to ATP which is used to generate luminescence in the luciferase reaction. The amount of luminescence measured is proportional to the amount of AMP produced by ENPP1.
The final reaction mixture contains 50 mM Tris (pH 8.5) buffer, 250 mM NaCl, 0.5 mM CaCl2), 1 μM ZnCl2, 5% glycerol and 1% DMSO. Serially diluted ENPP1 inhibitors (typically in the range of 10 μM to 0.5 nM) were pre-stored with human recombinant ENPP1 enzymes (R & D systems) at 3 ng/reaction and room temperature (RT) for 5 to 10 minutes. The reaction was initiated by addition of cGAMP (at a final concentration of 5 μM) and reacted at 37° C. for 90 minutes. At the end of the reaction, 10 μl of the AMP-Glo first reagent was added to stop the reaction and the result was stored at room temperature for 1 hour. After storage, 20 μl of an AMP detection solution (a mixture of AMP-Glo II reagent and Kinase-Glo at a ratio of 1:100) was added and stored at room temperature for 1 hour. Luminescence signals were measured using a Victor® plate reader (Perkin Elmer). The maximal activity control (containing enzymes and substrates in the presence of 1% DMSO; MAX) and the minimal activity control (containing substrates and 1% DMSO; MIN) were evaluated simultaneously. In each experiment, serially diluted reference ENPP1 inhibitors were tested as well. IC50, indicating % residual activity versus compound concentration was determined by fitting inhibition curves using the 3-parameter analysis of GraphPad Prism® software. Serially diluted samples of one compound were tested two or more times and an average IC50 of each compound was calculated.

Structure (SMILES)	IC50 [µM]
C[C@H](NS(N)(=O)=O)c1ccc(-c2ccnc3[nH]c(=O)ccc23)cc1 [Example 47, (S)-(N-(1-(4-(7-oxo-7,8-dihydro-1,8-naphthyridin-4-yl)phenyl)ethyl)sulfamide hydrochloride]	< 1
NCc1cccc(Nc2ccnc3[nH]c(=O)ccc23)c1 [Example 77, 5-((3-aminomethyl)phenyl)amino)-1,8-naphthyridin-2(1H)-one dihydrochloride]	< 1
NS(=O)(=O)N1CCc2cc(Nc3ccnc4[nH]c(=O)ccc34)ccc2C1 [Example 104, dihydrochloride]	1 to 10
CC(C)(C)OC(=O)Nc1cccc(-c2ccnc3[nH]c(=O)ccc23)c1 [Example 1, tert-butyl(3-(7-oxo-7,8-dihydro-1,8-naphthyridin-4-yl)phenyl)carbamate]	1 to 10
NCc1cccc(-c2ccnc3[nH]c(=O)ccc23)c1 [Example 7, 5-(3-(aminomethyl)phenyl)-1,8-naphthyridin-2(1H)-one hydrochloride]	< 1
Cn1c(=O)ccc2c(-c3ccc(CNS(N)(=O)=O)cc3)ccnc21 [Example 67, N-(4-(8-methyl-7-oxo-7,8-dihydro-1,8-naphthyridin-4-yl)benzyl)sulfamide]	< 1
CN[C@H](C)c1ccc(-c2ccnc3[nH]c(=O)ccc23)cc1 [Example 17, (R)-5-(4-(1-(methylaminoethyl)phenyl)-1,8-naphthyridin-2(1H)-one hydrochloride]	1 to 10
NS(=O)(=O)NCC1CCN(c2ccnc3[nH]c(=O)ccc23)CC1 [Example 124, N-((1-(7-oxo-7,8-dihydro-1,8-naphthyridin-4-yl)piperidin-4-yl)methyl)sulfamide]	< 1
C[C@@H](NS(N)(=O)=O)c1ccc(-c2ccnc3[nH]c(=O)ccc23)cc1F [Example 48, (R)-(N-(1-(2-fluoro-4-(7-oxo-7,8-dihydro-1,8-naphthyridin-4-yl)phenyl)ethyl)sulfamide hydrochloride]	< 1
NS(=O)(=O)N1CCCN(c2ccnc3[nH]c(=O)ccc23)CC1 [Example 127]	1 to 10
C[C@@H](NS(N)(=O)=O)c1ccc(-c2ccnc3[nH]c(=O)ccc23)cc1 [Example 46, (R)-(N-(1-(4-(7-oxo-7,8-dihydro-1,8-naphthyridin-4-yl)phenyl)ethyl)sulfamide hydrochloride]	< 1
NS(=O)(=O)N1CCc2cc(Nc3ccnc4[nH]c(=O)ccc34)c(F)cc2C1 [Example 106, (7-fluoro-6-((7-oxo-7,8-dihydro-1,8-naphthyridin-4-yl)amino)-3,4-dihydroisoquinolin-2(1H)-yl) sulfamide dihydrochloride]	< 1
CC(C)(C)OC(=O)NCc1ccc(-c2ccnc3[nH]c(=O)ccc23)cc1 [Example 3, tert-butyl(4-(7-oxo-7,8-dihydro-1,8-naphthyridin-4-yl)benzyl)carbamate]	1 to 10
NS(=O)(=O)NCc1ccc(Nc2ccnc3[nH]c(=O)ccc23)cc1 [Example 98, N-(4-((7-oxo-7,8-dihydro-1,8-naphthyridin-4-yl)amino)benzyl)sulfamide dihydrochloride]	1 to 10
C[C@H](c1ccc(-c2ccnc3[nH]c(=O)ccc23)cc1)N(C1CC1)S(N)(=O)=O [Example 60, (R)-(N-cyclopropyl-N-(1-(4-(7-oxo-7,8-dihydro-1,8-naphthyridin-4-yl)phenyl)ethyl)sulfamide hydrochloride]	1 to 10
CN(Cc1ccc(-c2ccnc3[nH]c(=O)ccc23)cc1)S(N)(=O)=O [Example 50, N-methyl-N-(4-(7-oxo-7,8-dihydro-1,8-naphthyridin-4-yl)benzyl)sulfamide hydrochloride]	< 1
Cn1c(=O)ccc2c(N3CCC(CN)CC3)ccnc21 [Example 118, 5-(4-(aminomethyl)piperidin-1-yl)-1-methyl-1,8-naphthyridin-2(1H)-one hydrochloride]	> 10
NS(=O)(=O)NCCC1CCN(c2ccnc3[nH]c(=O)ccc23)CC1 [Example 125, N-(2-(1-(7-oxo-7,8-dihydro-1,8-naphthyridin-4-yl)piperidin-4-yl)ethyl)sulfamide]	< 1
O=c1ccc2c(-c3ccc(CNS(=O)(=O)c4cccs4)cc3)ccnc2[nH]1 [Example 70, N-(4-(7-oxo-7,8-dihydro-1,8-naphthyridin-4-yl)benzyl)thiophene-2-sulfonamide]	< 1
Cn1c(=O)ccc2c(N3CCC(CNS(N)(=O)=O)CC3)ccnc21 [Example 128, N-((1-(8-methyl-7-oxo-7,8-dihydro-1,8-naphthyridin-4-yl)piperidin-4-yl)methyl)sulfamide]	< 1

Other lines, results leading:

IC50 [µM]	Structure (SMILES)
> 10	NCc1cccc(-c2ccnc3c2CCC(=O)N3)c1 [Example 132, 5-(3-(aminomethyl)phenyl)-3,4-dihydro-1,8-naphthyridin-2(1H)-one hydrochloride]
< 1	O=c1ccc2c(Nc3ccc4c(c3)CCNC4)ccnc2[nH]1 [Example 85, 5-((1,2,3,4-tetrahydroisoquinolin-6-yl)amino)-1,8-naphthyridin-2(1H)-one dihydrochloride]
< 1	CC(C)(N)c1ccc(-c2ccnc3c2CCC(=O)N3)cc1 [Example 134, 5-(4-(2-aminopropan-2-yl)phenyl)-3,4-dihydro-1,8-naphthyridin-2(1H)-one hydrochloride]
< 1	NS(=O)(=O)N1CCc2cc(F)c(-c3ccnc4[nH]c(=O)ccc34)cc2C1 [Example 66, 6-fluoro-7-(7-oxo-7,8-dihydro-1,8-naphthyridin-4-yl)-3,4-dihydroisoquinoline-2(1H)-sulfamide hydrochloride]
< 1	Cc1ccc(S(=O)(=O)NCc2cccc(-c3ccnc4c3CCC(=O)N4)c2)cc1 [Example 147, 4-methyl-N-(3-(7-oxo-5,6,7,8-tetrahydro-1,8-naphthyridin-4-yl)benzyl)benzenesulfonamide]
1 to 10	Nc1cccc(-c2ccnc3c2CCC(=O)N3)c1 [Example 131, 5-(3-(aminophenyl)-3,4-dihydro-1,8-naphthyridin-2(1H)-one hydrochloride]
< 1	NS(=O)(=O)Nc1cccc(-c2ccnc3c2CCC(=O)N3)c1 [Example 139, N-(3-(7-oxo-5,6,7,8-tetrahydro-1,8-naphthyridin-4-yl)phenyl)sulfamide]
< 1	NS(=O)(=O)N1CCc2ccc(Nc3ccnc4c3CCC(=O)N4)cc2C1 [Example 144, (7-(7-oxo-5,6,7,8-tetrahydro-1,8-naphthyridin-4-yl)amino)-3,4-dihydroisoquinoline-2(1H)-sulfamide hydrochloride]
1 to 10	CC(C)(C)OC(=O)NS(=O)(=O)N1CCc2ccc(-c3ccnc4c3CCC(=O)N4)cc2C1 [Example 138, tert-butyl((7-(7-oxo-5,6,7,8-tetrahydro-1,8-naphthyridin-4-yl)-3,4-diisoquinoline-2(1H)-yl)sulfonyl)carbamate]
> 10	O=C1CCc2c(-c3ccc4c(c3)CNCC4)ccnc2N1 [Example 135, 5-(1,2,3,4-tetrahydroisoquinolin-7-yl)-3,4-dihydro-1,8-naphthyridin-2(1H)-one hydrochloride]
> 10	CN(c1ccc2c(c1)CN(S(N)(=O)=O)CC2)c1ccnc2[nH]c(=O)ccc12 [Example 108, (7-(methyl(7-oxo-7,8-dihydro-1,8-naphthyridin-4-yl)amino)-3,4-dihydroisoquinolin-2(1H)-yl)sulfamide dihydrochloride]
